US8410153B2, “Naphthalene isoxazoline invertebrate pest control agents” (E.I. du Pont de Nemours and Company, priority 2007, dated 2013)

Tests used:
Type in all cases: in vivo
[1] = tested on: fall armyworm (Spodoptera frugiperda); test: Test B: control of fall armyworm on corn (maize) plant, foliar spray; details: sprayed at 50 ppm
How it was run: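 4-5-day-old corn plants pre-infested with 10-15 1-day-old larvae on insect diet, then sprayed with compound at 50 ppm in 10% acetone/90% water with 300 ppm surfactant, three replicates. Held 6 days at 25° C, 70% RH; feeding damage assessed visually and mortality rated.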

[2] = tested on: western flower thrips (Frankliniella occidentalis); test: Test E: control of western flower thrips on Soleil bean plant, contact and/or systemic; details: held 6 days
How it was run: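 5–7-day-old Soleil bean plants were sprayed at 250 or 50 ppm in 10% acetone/90% water with 300 ppm X-77 surfactant, three replicates. After drying 1 h, 22–27 adult thrips were added per unit. Mortality and plant damage were rated after 6 days at 25 °C and 45–55% RH.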

[3] = tested on: diamondback moth (Plutella xylostella); test: Test A: control of diamondback moth on radish plant, foliar spray; details: sprayed at 50 ppm, held 6 days
How it was run: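 Radish plants 12–14 days old, pre-infested with about 50 neonate larvae, sprayed at 50 ppm in 10% acetone/water with 300 ppm X-77 surfactant; three replicates. After 6 days at 25° C and 70% RH, feeding damage was scored visually and mortality counted.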

Measured: levels of control efficacy (20% or less feeding damage or 80% or more mortality)

CC(C)NC(=O)C(C)NC(=O)c1ccc(C2=NOC(c3cc(Cl)cc(Cl)c3)(C(F)(F)F)C2)c2ccccc12 (mixture of isomers) [Compound 33]
very good to excellent: [1] | [2]; sprayed at 50 ppm | [2]; sprayed at 250 ppm | [3]

O=C(CNC(=O)c1ccc(C2=NOC(c3cc(Cl)cc(OC(F)(F)F)c3)(C(F)(F)F)C2)c2ccccc12)NCC(F)(F)F (racemic) [Compound 136]
very good to excellent: [1] | [2]; sprayed at 50 ppm | [3]

CS(=O)(=O)CCNC(=O)c1ccc(C2=NOC(c3cc(F)cc(C(F)(F)F)c3)(C(F)(F)F)C2)c2ccccc12 (racemic) [Compound 134]
very good to excellent: [1] | [2]; sprayed at 50 ppm | [2]; sprayed at 250 ppm | [3]

O=C(CNC(=O)c1ccc(C2=NOC(c3cc(Cl)c(Cl)c(Cl)c3)(C(F)(F)F)C2)c2ccccc12)NCC(F)(F)F (stereo not drawn) [Compound 19]
very good to excellent: [1] | [2]; sprayed at 50 ppm | [2]; sprayed at 250 ppm | [3]

CCNC(=O)CNC(=O)c1ccc(C2=NOC(c3cc(Cl)cc(C(F)(F)F)c3)(C(F)(F)F)C2)c2ccccc12 (stereo not drawn) [Compound 119]
very good to excellent: [1] | [2]; sprayed at 50 ppm | [2]; sprayed at 250 ppm | [3]

CC(NC(=O)c1ccc(C2=NOC(c3cc(Cl)cc(Cl)c3)(C(F)(F)F)C2)c2ccccc12)C(=O)NCC(F)(F)F (mixture of isomers) [Compound 16]
very good to excellent: [1] | [2]; sprayed at 50 ppm | [2]; sprayed at 250 ppm | [3]

CCS(=O)(=O)CCNC(=O)c1ccc(C2=NOC(c3cc(C(F)(F)F)cc(C(F)(F)F)c3)(C(F)(F)F)C2)c2ccccc12 (stereo not drawn) [Compound 99]
very good to excellent: [1] | [2]; sprayed at 50 ppm | [3]

CC(C)(NC(=O)c1ccc(C2=NOC(c3cc(Cl)cc(Cl)c3)(C(F)(F)F)C2)c2ccccc12)C(=O)NCC(F)(F)F (stereo not drawn) [Compound 4]
very good to excellent: [1] | [2]; sprayed at 50 ppm | [2]; sprayed at 250 ppm | [3]

CC(C)CNC(=O)CNC(=O)c1ccc(C2=NOC(c3cc(Cl)cc(C(F)(F)F)c3)(C(F)(F)F)C2)c2ccccc12 (stereo not drawn) [Compound 118]
very good to excellent: [1] | [2]; sprayed at 250 ppm | [3]

CC(C)(C)CNC(=O)CNC(=O)c1ccc(C2=NOC(c3cc(Cl)cc(C(F)(F)F)c3)(C(F)(F)F)C2)c2ccccc12 (stereo not drawn) [Compound 120]
very good to excellent: [1] | [2]; sprayed at 50 ppm | [2]; sprayed at 250 ppm | [3]

CC(O)CNC(=O)c1ccc(C2=NOC(c3cc(C(F)(F)F)cc(C(F)(F)F)c3)(C(F)(F)F)C2)c2ccccc12 (stereo not drawn) [Compound 67]
very good to excellent: [1] | [2]; sprayed at 50 ppm | [2]; sprayed at 250 ppm | [3]

CCC(CC)NC(=O)CNC(=O)c1ccc(C2=NOC(c3cc(Cl)cc(Cl)c3)(C(F)(F)F)C2)c2ccccc12 (stereo not drawn) [Compound 25]
very good to excellent: [1] | [2]; sprayed at 250 ppm | [3]

CS(=O)(=O)CCNC(=O)c1ccc(C2=NOC(c3cc(Br)cc(C(F)(F)F)c3)(C(F)(F)F)C2)c2ccccc12 (racemic) [Compound 54]
very good to excellent: [1] | [2]; sprayed at 50 ppm | [2]; sprayed at 250 ppm | [3]

CSCCCNC(=O)c1ccc(C2=NOC(c3cc(Cl)cc(Cl)c3)(C(F)(F)F)C2)c2ccccc12 (stereo not drawn) [Compound 22]
very good to excellent: [1] | [2]; sprayed at 50 ppm | [2]; sprayed at 250 ppm | [3]

CSCCNC(=O)c1ccc(C2=NOC(c3cc(Cl)c(Cl)c(Cl)c3)(C(F)(F)F)C2)c2ccccc12 (stereo not drawn) [Compound 15]
very good to excellent: [1] | [2]; sprayed at 50 ppm | [2]; sprayed at 250 ppm | [3]

CSCC(C)(C)NC(=O)c1ccc(C2=NOC(c3cc(Cl)cc(Cl)c3)(C(F)(F)F)C2)c2ccccc12 (stereo not drawn) [Compound 27]
very good to excellent: [1] | [2]; sprayed at 50 ppm | [2]; sprayed at 250 ppm | [3]

CC(C)NC(=O)C(C)NC(=O)c1ccc(C2=NOC(c3cc(C(F)(F)F)cc(C(F)(F)F)c3)(C(F)(F)F)C2)c2ccccc12 (stereo not drawn) [Compound 87]
very good to excellent: [1] | [2]; sprayed at 250 ppm | [3]

CCNC(=O)C(C)NC(=O)c1ccc(C2=NOC(c3cc(Br)cc(C(F)(F)F)c3)(C(F)(F)F)C2)c2ccccc12 (mixture of isomers) [Compound 142]
very good to excellent: [1] | [2]; sprayed at 50 ppm | [3]

CC(O)CNC(=O)c1ccc(C2=NOC(c3cccc(C(F)(F)F)c3)(C(F)(F)F)C2)c2ccccc12 (mixture of isomers) [Compound 36]
very good to excellent: [1] | [2]; sprayed at 250 ppm | [3]

CSCC(C)NC(=O)c1ccc(C2=NOC(c3cc(C(F)(F)F)cc(C(F)(F)F)c3)(C(F)(F)F)C2)c2ccccc12 (mixture of isomers) [Compound 59]
very good to excellent: [1] | [2]; sprayed at 50 ppm | [2]; sprayed at 250 ppm | [3]

CSCCNC(=O)c1ccc(C2=NOC(c3cc(Cl)cc(C(F)(F)F)c3)(C(F)(F)F)C2)c2ccccc12 (stereo not drawn) [Compound 65]
very good to excellent: [1] | [2]; sprayed at 50 ppm | [2]; sprayed at 250 ppm | [3]

CC(CO)NC(=O)c1ccc(C2=NOC(c3cc(Cl)cc(Cl)c3)(C(F)(F)F)C2)c2ccccc12 (mixture of isomers) [Compound 31]
very good to excellent: [1] | [2]; sprayed at 50 ppm | [2]; sprayed at 250 ppm | [3]
